The subject of data set [1] is EIAVWYO. Nature of the data set: EIAV replication kinetics in equine dermal cells, RT qPCR of culture supernatants. The conditions noted are these: for EIAV viral replication decreased to (from 10^8) / EIAV viral replication reduced to (from 10^8): 10 μM; for EIAV viral replication decreased to (from 10^8): day 15 post infection; for EIAV viral replication reduced to (from 10^8): day 15 and 20 post infection. Type of data set: cell-based, Equine infectious anemia virus. On the procedure:
Equine dermal cells (3×10^4 cells per well of a 96-well plate) were seeded and incubated in complete media (as described above for NEV infections) under 5% CO2 at 37° C., for 24 h to 72 hours prior to infection. The antiviral effect adefovir dipivoxil, as well as other are antiviral drugs approved by FDA or EMA such as Zidovudine (nucleoside reverse transcription inhibitor), Nevirapine (non-nucleoside reverse transcription inhibitor), Indinavir sulphate (a HIV-1 protease inhibitor), Darunavir Ethanolate (a HIV-1 protease inhibitor), Daclastavir (HCV NS5A inhibitor), Cyclosporin A (immunosuppressive agent) and the drug that is being evaluated in pre-clinical/clinical assays as antivirals, such as Tenofovir (a nucleoside reverse transcription inhibitor), was evaluated (FIGS. 4A and 4B).
The drugs mentioned above were also tested as antivirals for EIAV. For that cells were pre-treated with drugs at two different concentrations 1 or 10 μM for 1 hour in triplicates. Cells were then infected with EIAVWYO (3 MOI for 2 hours). After infection fresh media and drugs were replaced and cells incubated for 5, 10, 15 and 20 days. The EIAVWYO replication was evaluated by quantifying EIAV viral genome in culture supernatants by means of RT qPCR. FIGS. 4A and 4B show the effect of the different drugs in EIAV replication kinetics. […] Virus was only recovered at low levels from treated cells in one of three replicate at day 5 (10 viral particles/mL) and another of three replicates at day 15 (100 viral particles/mL). The differences observed between the treated and not treated infected cells were statistically significant for p<0.001.
For orientation: Quantitative PCR measures a nucleic acid by following its amplification.

Data set [2] relates to NEV. Nature of the data set: Antiviral drug screen: PrestoBlue cell viability of NEV-infected Equine Dermal cells. Type of data set: cell-based, New Equine Virus. The conditions noted are these: ED cells, 9 days. From the text:
(§1) Complete media was composed of DMEM medium (Gibco, Life Technologies) with 10% Inactivated Fetal bovine serum (Gibco, Life Technologies), 1% Glutamax (Gibco, Life Technologies) and 1% Penicillin-Streptamicin (Gibco, Life Technologies).
The antiviral effect of adefovir dipivoxil, as well as other are antiviral drugs approved by FDA or EMA such as Zidovudine (nucleoside reverse transcription inhibitor), Nevirapine (non-nucleoside reverse transcription inhibitor), Indinavir sulphate (a HIV-1 protease inhibitor), Darunavir Ethanolate (a HIV-1 protease inhibitor), Daclastavir (HCV NS5A inhibitor), Cyclosporin A (immunosuppressive agent) and the drug that is being evaluated in pre-clinical/clinical assays as antivirals, such as Tenofovir (a nucleoside reverse transcription inhibitor), was evaluated (FIGS. 4A and 4B). Cells were pre-treated with drugs at 1 or 10 μM in quintuplicates for one hour and infected with NEV (1130 PFU per well) for 2 hours. After 2 hours fresh media with drugs was replaced. Cells were then incubated for 9 days in a humid chamber 37° C. and 5% CO2. After 9 days cellular viability of treated cells was compared to those of non infected cells and infected and not treated cells by using PrestoBlue cell viability reagent. […]

Data set [3] has as its system EHV-1. Nature of the data set: EHV-1 viral particles in supernatant of ED cells by qPCR. Type of data set: cell-based, Equine herpesvirus 1. The conditions noted are these: Equus caballus, 72 h, day 3 post infection. The method, then:
(Selleckchem, Germany). The pre-treatment with the drug preceded the infection.
A standard curve of an EHV-1 synthetic DNA was used. To obtain the standard curve, seven 1:10 dilutions of the synthetic DNA in duplicates were tested in parallel. Samples were tested in triplicates. The standard curve obtained (with R2 0.995, Efficiency 91.7%) allowed us to quantify the EHV-1 viral particles produced into the cell culture media.

The subject of data set [4] is EHV-1. Nature of the data set: EHV-1 viral particles in supernatant of MacF macrophage-like cells by qPCR. It is filed as cell-based, Equine herpesvirus 1. As to conditions: Equus caballus, 72 h, day 3 post infection. On the procedure: (§2) Antiviral activity of Adefovir dipivoxil was also evaluated in macrophage like cell lines. […] (Selleckchem, Germany). The pre-treatment with the drug preceded the infection.
(§3) Infections studies, viral particle quantification and cell viability assays were performed as described above for antiviral assays in ED cells.
(§4) Antiviral activity of Tenofovir disoproxil fumarate was also evaluated in macrophage like cell lines. […] (Selleckchem, Germany). The pre-treatment with the drug preceded the infection.
(§5) EHV-1 cell infections, viral particle production and cell viability assays were assayed as described in example 5.

Data set [5] deals with EHV-1. Nature of the data set: PrestoBlue cell viability of EHV-1 infected MacF macrophage-like cells. It is filed as cell-based, Equine herpesvirus 1. The conditions noted are these: Equus caballus, 144 h, day 6 post infection, average of two independent experiments. On the procedure: as §2, §3, §4, §5
The subject of data set [6] is EHV-1. As to conditions: ED cells.
Method: (§6) Equine Dermal cells (ATCC CCL57) (10^5 cells/cm^2) were seeded in 96 well plates 24 to 72 hours before infection in complete media and incubated in a humid chamber at 37° C. and 5% CO2 until 95%-99% confluent monolayers were attained. Complete media was composed of DMEM medium (Gibco, Thermofisher Scientific) with 10% of Inactivated Fetal bovine serum (Gibco, Thermofisher Scientific), 1% of Glutamax (Gibco, Life Technologies) and 1% Penicilin-Streptamicin (Gibco, Thermofisher Scientific). […] (Selleckchem, Germany). The pre-treatment with the drug preceded the infection.
(§7) ED cells were pre-treated with drug for 30 minutes before infection, and treatment maintained during infection.
(§8) Cells were infected with EHV-1 at 1 MOI for 2 hours. Infective EHV-1 viral particles were produced in ED cells with an EHV-1 molecular clone purchased from ATCC (VR-2248). After infection cells were washed twice with HBSS to remove unbound virus and fresh complete media and fresh drug was replaced in each well. Treatment was maintained during 6 days without addition of fresh drug.
(§9) After 6 days post-infection reazurin-based cell viability assays (PrestoBlue, Thermofisher Scientific) were used to evaluate the increased cell numbers in the same conditions as indicated above for qPCR quantification. […] 15 μl of Prestoblue reagent was added directly to the assay wells and absorbance measured at 570 nm after 24 hours of incubation with the Prestoblue reagent. All the absorbance values were corrected by removing the baseline, absorbance values of the Prestoblue reagent incubated 24 hours without cells. The results were analysed by Prism software by using the four-parameter function (log (drug) vs. response assuming a variable slope).
(§10) Equine Dermal cells (ATCC CCL57) (10^5 cells/cm^2) were seeded in 96 well plates 24 to 72 hours before infection in complete media and incubated in a humid chamber at 37° C. and 5% CO2 until 95%-99% confluent monolayers were attained. Complete media was composed of DMEM medium (Gibco, Thermofisher Scientific) with 10% of Inactivated Fetal bovine serum (Gibco, Thermofisher Scientific), 1% of Glutamax (Gibco, Thermofisher Scientific) and 1% Penicilin-Streptamicin (Gibco, Thermofisher Scientific). […] (Selleckchem, Germany). The pre-treatment with the drug preceded the infection.
Data set [7] concerns EHV-1. The experiment in a line: cells. As to conditions: Equus caballus, 144 h, read-out: IC50 for EHV-1 by cell viability.
Method: as §6, §7, §8, §9, §10
A short description of data set [8]: in vitro. The conditions noted are these: horse (equine).
Method: For that, ED cells (10^5 cells/cm^2) were seeded as mentioned above in 96-well plates. […] To determine drug CC50, twelve different concentrations of 4, 6, 9, 13.5, 20.250, 30.370, 45.560, 68.340, 102.520, 153.770, 230.660 and 2000 μM were performed in quintuplicates per each drug concentration. Cell viability was assessed by using the PrestoBlue reagent as mention above for IC50 analysis and incubated for 24 hours.
For that, ED cells (10^5 cells/cm^2) were seeded as mentioned above in 96-well plates. […] To determine drug CC50, ten different 1:1.3 serial dilutions from 25.39 to 350 μM were performed in quintuplicates per each drug concentration. Cell viability was assessed by using the PrestoBlue reagent as mention above for IC50 analysis and incubated for 24 hours.
Data set [9] has as its system NEV. Nature of the data set: Dose response: PrestoBlue cell viability of NEV-infected ED cells. It is filed as cell-based, New Equine Virus. The method, then: as §1
(Selleckchem, Germany). The pre-treatment with adefovir dipivoxil (Selleckchem, Germany) preceded the infection. To determine drug IC50 ten 1:2 serial dilutions ranging from 5 to 2560 nM concentrations were performed in quintuplicates for each drug concentration. ED cells were pre-treated with drug for 60 minutes before infection, and treatment maintained during infection. NEV viral particles (10 μl containing 1130 PFU) were added to the cell culture media for 2 hours. […] Eleven days after infection, cells were screened for viability by using the PrestoBlue cell viability assay (Molecular Probes, Life Technologies) accordingly to manufacturer instructions. Absorbance (570 nm) of adefovir dipivoxil treated cells was compared to those of non-infected and/or untreated NEV-infected cells.

For data set [10], the system named is NEV. Nature of the data set: Dose response: PrestoBlue cell viability of NEV-infected equine macrophage cell line (MacF). Type of data set: cell-based, New Equine Virus. On the procedure:
An equine macrophage cell line (MacF) was spontaneously immortalized from a NEV-seropositive horse accordingly the procedures reported in Fidalgo-Carvalho et. al, 2009.
Cells were incubated 24 to 72 hours before NEV infection until 95%-99% confluent cell monolayers were attained.
(Selleckchem, Germany), as reported above for ED cells. To determine drug IC50 in MacF cell line, eleven serial dilutions of 1:4 ranging from 0.05 nM to 28 μM were performed in quintuplicates for each drug concentration. MacF Cells were pre-treated with drug for 60 minutes before infection, and treatment was maintained during infection. NEV viral particles (10 μl containing 1130 PFU) were added to the cell culture media for 2 hours. […] Eleven days after infection, cells were screened for viability by using the PrestoBlue cell viability assay (Molecular Probes, Life Technologies) accordingly to manufacturer instructions. Absorbance (570 nm) of adefovir dipivoxil treated cells was compared to those of non-infected and/or untreated NEV infected cells.

The subject of data set [11] is EIAVWYO. The experiment in a line: IC50 for EIAVWYO viral replication in ED cells by RT qPCR. It is filed as cell-based. As to conditions: Equine infectious anemia virus, 168 h, read-out: IC50 (EIAVWYO viral replication). The method, then: Furthermore, to better evaluate the effect of the drug on EIAVWYO viral replication on ED cells, we have determined the IC50 of adefovir dipivoxil. […] (Selleckchem, Germany) for 60 minutes. The pre-treatment with Adefovir dipivoxil (Selleckchem, Germany) preceded the infection. Eleven serial dilutions ranging from 0.01 to 10,000 nM (0.01, 19.53, 39.06, 78.130, 156.250, 312.5, 625, 1250, 2500, 5000 and 10000 nM) were performed in triplicates for each drug concentration. Treatment was maintained during infection. EIAVWYO viral particles (10 μl containing 1.9×10^5 viral particles) were added in each well of a 96-well plate and incubated for 2 hours. […] For quantification, a standard curve of an EIAV plasmid DNA was used. To obtain the standard curve, seven 1:10 dilutions in duplicates were tested in parallel. Samples were tested in triplicates. The standard curve obtained (with R^2 0.994, Efficiency 96.56%) allowed us to quantify the viral particles.

Data set [12] in a line: Cytotoxicity (CC50) in MacF macrophage cell line, PrestoBlue. It is filed as cell-based. As to conditions: horse (equine), MacF cells, treated for 7 days. From the text: (Selleckchem, Germany) for 7 days.

The IC50 is the concentration at which inhibition is half-maximal.

For `CC(C)CN(C[C@@H](O)[C@H](Cc1ccccc1)NC(=O)O[C@H]1CO[C@H]2OCC[C@H]21)S(=O)(=O)c1ccc(N)cc1` [Darunavir], the “EIAV viral replication decreased to (from 10^8)” value in data set [1] is on record as 10^3 viral particles/mL.
Regarding `C[C@H](Cn1cnc2c(N)ncnc21)OCP(=O)(O)O` [tenofovir, [(2R)-1-(6-aminopurin-9-yl)propan-2-yl]oxymethylphosphonic acid], the “cell viability of NEV infected cells” value in data set [2] (drug at 10 μM) is listed as “increased the cell viability of infected cells”. In data set [1], the “EIAV viral replication reduced to (from 10^8)” value is listed as 10^5 viral particles/mL.
Regarding `CC(C)OC(=O)OCOP(=O)(CO[C@H](C)Cn1cnc2c(N)ncnc21)OCOC(=O)OC(C)C.O=C(O)/C=C/C(=O)O` [tenofovir disoproxil fumarate], the IC50 was 7440 nM in data set [3] (average of four independent experiments), 1130 nM in data set [4] (average of two independent experiments), 22700 nM in data set [5] and 14000 nM in data set [7]. Besides, in [6], the “therapeutic index (CC50/IC50) for EHV-1” value is given as 8.334. The compound further displayed a CC50 at 3 days in [8] of 117000 nM.
Consider `CC(C)(C)C(=O)OCOP(=O)(COCCn1cnc2c(N)ncnc21)OCOC(=O)C(C)(C)C` [adefovir dipivoxil, 9-[2-[[bis[(pivaloyloxy)methoxy]phosphinyl]-methoxy]ethyl]adenine], for which, in data set [2] (drug at 1 or 10 μM, vs non infected and untreated infected cells), the “cellular viability of NEV infected cells” value is “completely reverted the effect of NEV on cellular viability”. Moreover, the “cell viability (absorbance) compared with non-infected mock cells” value in data set [9] (320 nM, 11 days post NEV infection) is given as “very similar absorbance values”. The IC50 in [9] (Equus caballus, 264 h, 11 days after infection) was determined as 113 nM; in data set [10] (Equus caballus, Macrophage, 264 h, MacF cells, 11 days after infection), 3840 nM; in data set [11], 3.38 nM; in [3] (three independent experiments), 4.42 nM; in [4] (average of three independent experiments), 142 nM; in data set [5], 172 nM. In addition, the IC50 in data set [7] worked out at 123 nM. Also, in [10] (14 μM, 11 days post NEV infection), the “cell viability (absorbance) compared with Mock MacF cells” value is reported as “very similar (or even slightly higher)”. Besides, the “effect on EIAV replication” value in data set [1] (ED cells, 1 or 10 μM, single dose, up to 20 days) is “blocked the EIAV replication”. Also, the “virus recovered from treated cells” value in data set [1] (day 5, one of three replicates) came out at 10 viral particles/mL; in data set [1] (day 15, one of three replicates), 100 viral particles/mL. In data set [12], this compound yielded a CC50 at 7 days of 207000 nM. Moreover, the “therapeutic index (CC50/IC50) for EHV-1” value in data set [6] worked out at 1162.3. In [8] (Equine Dermal (ED) cells (ATCC CCL57)), this compound yielded a CC50 at 6 days of 142000 nM.
`CC(C)(C)NC(=O)[C@@H]1CN(Cc2cccnc2)CCN1C[C@@H](O)C[C@@H](Cc1ccccc1)C(=O)N[C@H]1c2ccccc2C[C@H]1O` [Indinavir]: in data set [1], the “EIAV viral replication decreased to (from 10^8)” value is given as 10^4 viral particles/mL.
Consider `Cc1cn([C@H]2C[C@H](N=[N+]=[N-])[C@@H](CO)O2)c(=O)[nH]c1=O` [zidovudine], for which the “EIAV viral replication reduced to (from 10^8)” value in [1] was 10^5 viral particles/mL.

The values above are taken from patent US20190216831A1 (priority 2015, published 2019).
